Laboratory results taken from publication PMC5503534, “Stable aneuploid tumors cells are more sensitive to TTK inhibition than chromosomally unstable cell lines” (Oncotarget, 2017).
Where two headings read alike, the source gives them in different places. Values belong to the molecule of their own block, whether it stands above or below them.

Key:
[1] = tested on: HCT 116 colon carcinoma cell line; assay: Cell proliferation assay (ATPlite), HCT 116; format: cell-based, human; settings: for Eff. (%): HCT 116, five days, maximum inhibitory effect, average of three experiments; for IC50: Homo sapiens, 120 h, HCT 116 near-diploid, five days, geometric average of three experiments (Suppl. Table 2A)
Procedure: (§1) Cell proliferation assays were carried out as described using ATPlite 1step™ (Perkin Elmer, Groningen, The Netherlands). Exposure time was 72 or 120 hours as indicated in the Legends to the Figures. Percentage growth was calculated, relative to the growth of unexposed cells, and relative IC50s were fitted using a four-parameter logistics curve (XLfit 5.3, IDBS). For Figure 4A and 7 dose response curves were redrawn in Prism. To compare the inhibitory potency of compounds in proliferation assays with HCT 116 parental and tetraploid clones, pIC50 (−^10logIC50) values were compared in three independent experiments. A two-tailed Student's t-test was performed to determine whether differences in sensitivity (ΔpIC50) were statistically significant. Caspase 3/7 activity of cancer cells was measured using Caspase-Glo 3/7 Assay kit (cat no. G8093, Promega, Madison USA). Viability of T-ALL cell samples was determined using ATPlite and exposure of 72 hours as described previously.

[2] = tested on: post-tetraploid HPT4 cells; assay: Cell proliferation assay, post-tetraploid HPT4; format: cell-based, human; settings: HPT4, five days; for Efficacy (%): average of three experiments; for IC50: Homo sapiens, 120 h, geometric average of three experiments
Procedure: (§2) Cancer cell lines and hTERT-RPE1 retinal pigment epithelial cells were purchased from the American Type Culture Collection (ATCC) (Manassas, VA, U.S.A.) from 2011 to 2014 [41] and cultured in ATCC-recommended media. All experiments were carried out within nine passages of the original vials from ATCC who authenticated the cancer cell lines by short tandem repeat analysis. We verified the mutant status of seven frequently mutated cancer genes (i.e., BRAF, CDKN2A, CTNNB1, EGFR, KRAS, PIK3CA and TP53) by full exome or targeted sequencing. Sequencing results were compared to COSMIC version 75 of the Genomics of Drug Sensitivity in Cancer data base and provided additional authentication of the identity of the cell lines. The isolation and characterization of post-tetraploid clones from HCT 116 has been described previously. The mutation status of the CDKN2A, CTNNB1, KRAS and PIK3CA genes were confirmed by sequence analysis in both the HCT 116 parental cell line and post-tetraploid clones. All experiments were carried out within nine passages of the original cell stocks that were transferred from the Max Planck Institute of Biochemistry (Martinsried, Germany) to Netherlands Translational Research Center.
as §1

[3] = tested on: post-tetraploid HPT2 cells; assay: Cell proliferation assay, post-tetraploid HPT2; format: cell-based, human; settings: HPT2, five days; for Efficacy (%): average of three experiments; for IC50: Homo sapiens, 120 h, geometric average of three experiments
Procedure: as §2, §1

[4] = tested on: post-tetraploid HPT1 cells; assay: Cell proliferation assay, post-tetraploid HPT1; format: cell-based, human; settings: HPT1, five days; for Efficacy (%): average of three experiments; for IC50: Homo sapiens, 120 h, geometric average of three experiments
Procedure: as §2, §1

[5] = tested on: HCT 116 vs HPT1, -2 and -4; assay: Drug sensitivity analysis, HCT116 diploid versus tetraploids; format: cell-based, human; settings: for Δeff. (%) / Phenotype (potency): HCT 116 vs HPT1, -2 and -4; for Phenotype (efficacy): HCT 116 vs HPT1, -2 and -4, based on % effect; for Phenotype (potency): 'resistant' indicates that tetraploids are resistant; for ΔpIC50: average log shift in sensitivity between parental and tetraploids
Procedure: as §1

[6] = tested on: pediatric T-ALL patient cell samples; assay: Viability assays with T-ALL patient samples; format: cell-based, human; settings: Homo sapiens, 72 h
Procedure: Written informed consent was obtained from the parents or legal guardians of each T-ALL patient to use excess diagnostic material for research purposes. The study was performed in accordance with the Institutional Review Board of the Erasmus Medical Center Rotterdam (The Netherlands) and in accordance with the Declaration of Helsinki. Leukemic cells were harvested from blood or bone marrow samples and were enriched to ≥ 90% purity.
as §1

[7] = tested on: DoTc2 4510 cervix carcinoma cell line; settings: three day cell proliferation assay; cited from earlier work
[8] = tested on: MG-63 osteosarcoma cell line; settings: three day cell proliferation assay; cited from earlier work
[9] = tested on: A-172 glioblastoma cell line; settings: three day cell proliferation assay; cited from earlier work
[10] = tested on: LoVo colorectal adenocarcinoma cell line; settings: three day cell proliferation assay; cited from earlier work
[11] = tested on: OVCAR-3 ovary adenocarcinoma cell line; settings: three day cell proliferation assay; cited from earlier work
[12] = tested on: HCT 116 colon carcinoma cell line; settings: three day cell proliferation assay; cited from earlier work

- IC50 [1]: 14 nM
SMILES: CCn1cc(-c2ccnc3[nH]c(-c4cccc(CN(C)C)c4)cc23)c(-c2ccc(NC(=O)N(C)C)cc2)n1 [GSK-1070916]
- Eff. (%) [1]: 61%
- Efficacy (%) [2]: 100%
- IC50 [2]: 1680 nM
- Efficacy (%) [3]: 100%
- IC50 [3]: 1700 nM
- Efficacy (%) [4]: 32%
- IC50 [4]: 16 nM
- Δeff. (%) [5]: 16%
- Phenotype (efficacy) [5]: sensitive
- Phenotype (potency) [5]: resistant
- ΔpIC50 [5]: 1.41

- IC50 [1]: 715 nM
SMILES: O=C(O)c1ccc(Nc2ncc3c(n2)-c2ccc(Cl)cc2C(c2c(F)cccc2F)=NC3)cc1 [MLN-8054]
- Eff. (%) [1]: 85%
- Efficacy (%) [2]: 56%
- IC50 [2]: 1200 nM
- Efficacy (%) [3]: 52%
- IC50 [3]: 1550 nM
- Efficacy (%) [4]: 61%
- IC50 [4]: 1330 nM
- Δeff. (%) [5]: −28%
- Phenotype (efficacy) [5]: resistant
- Phenotype (potency) [5]: resistant
- ΔpIC50 [5]: 0.28

SMILES: N[C@@H](CSC(c1ccccc1)(c1ccccc1)c1ccccc1)C(=O)O [STLC, S-trityl-L-cysteine]
- Eff. (%) [1]: 99%
- Efficacy (%) [2]: 95%
- IC50 [2]: 1400 nM
- Efficacy (%) [3]: 93%
- IC50 [3]: 1340 nM
- Efficacy (%) [4]: 90%
- IC50 [4]: 2040 nM
- Δeff. (%) [5]: −6%
- Phenotype (efficacy) [5]: resistant
- Phenotype (potency) [5]: resistant
- ΔpIC50 [5]: 0.34

SMILES: CC(C)C[C@H](NC(=O)[C@H](Cc1ccccc1)NC(=O)c1cnccn1)B(O)O [bortezomib]
- IC50 ([6]; all ten T-ALL patient samples, three days, read-out: IC50): < 10 nM
- IC50 ([6]; patient sample 491, three-day assay, read-out: IC50): 3 nM
- IC50 ([6]; patient sample 1033, three-day assay, read-out: IC50): 3 nM
- IC50 ([6]; patient sample 1816, three-day assay, read-out: IC50): 2 nM
- IC50 ([6]; patient sample 2323, three-day assay, read-out: IC50): 3 nM
- IC50 ([6]; patient sample 3594, three-day assay, read-out: IC50): 4 nM
- IC50 ([6]; patient sample 3852, three-day assay, read-out: IC50): 4 nM
- IC50 ([6]; patient sample 4023, three-day assay, read-out: IC50): 3 nM
- IC50 ([6]; patient sample 4126, three-day assay, read-out: IC50): 3 nM
- IC50 ([6]; patient sample 4992, three-day assay, read-out: IC50): 3 nM
- IC50 ([6]; patient sample 10110, three-day assay, read-out: IC50): 3 nM

SMILES: N.N.[Cl][Pt][Cl] [cisplatin]
- IC50 [7]: 7400 nM
- IC50 [8]: 4510 nM
- IC50 [9]: 15900 nM
- IC50 [10]: 6730 nM
- IC50 [11]: 11300 nM
- IC50 [12]: 6210 nM

SMILES: CN(C)/N=N/c1[nH]cnc1C(N)=O [dacarbazine]
- IC50 [7]: 3090 nM
- IC50 [8]: 16000 nM
- IC50 [9]: 31600 nM
- IC50 [10]: 5290 nM
- IC50 [11]: 13900 nM
- IC50 [12]: 18600 nM

SMILES: COc1cccc2c1C(=O)c1c(O)c3c(c(O)c1C2=O)C[C@@](O)(C(C)=O)C[C@@H]3O[C@H]1C[C@H](N)[C@H](O)[C@H](C)O1 [daunorubicin]
- IC50 ([6]; all ten T-ALL patient samples, three days): < 100 nM
- IC50 ([6]; patient sample 491, three-day assay): 80 nM
- IC50 ([6]; patient sample 1033, three-day assay): 43 nM
- IC50 ([6]; patient sample 1816, three-day assay): 38 nM
- IC50 ([6]; patient sample 2323, three-day assay): 80 nM
- IC50 ([6]; patient sample 3594, three-day assay): 43 nM
- IC50 ([6]; patient sample 3852, three-day assay): 61 nM
- IC50 ([6]; patient sample 4023, three-day assay): 57 nM
- IC50 ([6]; patient sample 4126, three-day assay): 71 nM
- IC50 ([6]; patient sample 4992, three-day assay): 41 nM
- IC50 ([6]; patient sample 10110, three-day assay): 42 nM

- IC50 [1]: 31 nM
SMILES: COc1cccc2c1C(=O)c1c(O)c3c(c(O)c1C2=O)C[C@@](O)(C(=O)CO)C[C@@H]3O[C@H]1C[C@H](N)[C@H](O)[C@H](C)O1 [doxorubicin]
- Eff. (%) [1]: 97%
- Efficacy (%) [2]: 100%
- IC50 [2]: 83 nM
- Efficacy (%) [3]: 100%
- IC50 [3]: 130 nM
- Efficacy (%) [4]: 99%
- IC50 [4]: 69 nM
- Δeff. (%) [5]: 3%
- Phenotype (efficacy) [5]: sensitive
- Phenotype (potency) [5]: resistant
- ΔpIC50 [5]: 0.46

SMILES: CC(=O)O[C@H]1C(=O)[C@@]2(C)[C@H]([C@H](OC(=O)c3ccccc3)[C@]3(O)C[C@H](OC(=O)[C@H](O)[C@@H](NC(=O)c4ccccc4)c4ccccc4)C(C)=C1C3(C)C)[C@]1(OC(C)=O)CO[C@@H]1C[C@@H]2O [paclitaxel]
- IC50 [7]: 10 nM
- IC50 [8]: 6 nM
- IC50 [9]: 17 nM
- IC50 [10]: 23 nM
- IC50 [11]: 26 nM
- IC50 [12]: 5 nM

- IC50 [1]: 25 nM
SMILES: CC[C@@H]1C(=O)N(C)c2cnc(Nc3ccc(C(=O)N[C@H]4CC[C@H](N5CCN(CC6CC6)CC5)CC4)cc3OC)nc2N1C(C)C [volasertib]
- Eff. (%) [1]: 98%
- Efficacy (%) [2]: 84%
- IC50 [2]: 49 nM
- Efficacy (%) [3]: 65%
- IC50 [3]: 45 nM
- Efficacy (%) [4]: 82%
- IC50 [4]: 26 nM
- Δeff. (%) [5]: −21%
- Phenotype (efficacy) [5]: resistant
- Phenotype (potency) [5]: resistant
- ΔpIC50 [5]: 0.19
